From patent US6136336A, “JM216 formulations” (priority 1999, dated 2000)
“Also recorded” adds a separate entry of the source.

Columns and labels:
[1] = Standard dissolution test (phosphate buffer pH 7.5, 37° C.); type: physicochemical; settings: phosphate buffer 1/15 M
From the text: The present inventors first attempted to reduce the particle size of the JM216 powder obtained from chemical synthesis by grinding or milling it to an amorphous state (as confirmed by x-ray diffraction pattern). The amorphous state indicates the disappearance of particles or crystalline drug and a particle size close to the molecular level. […] The addition of β-cyclodextrin or polymers to the JM216 during the grinding did allow obtaining the drug as an amorphous powder by reduction of the aggregation. […] The ratio of drug:β-cyclodextrin or drug:polymer also has some effect on solubility, with solubility generally increasing at higher β-cyclodextrin:drug or polymer:drug ratios. Ratios of drug:β-cyclodextrin or drug:polymer of from about 1:1 to about 1:15 (w/w) can be used with ratios of from about 1:4 to 1:15 being preferred and ratios of from about 1:9 to about 1:15 being most preferred.
Dissolution test: The ground mixture containing 5 mg. of JM216 was transferred directly into 50 ml of phosphate buffer (1/15 M, pH 7.5) kept at 37° C. and was stirred with a magnetic stirrer bar at 300 rpm. An aliquot of the solution was pipetted at the indicated time intervals and filtered through a 0.45 μm membrane filter. The concentration of the dissolved JM216 was determined by high performance liquid chromatography (HPLC).
Grinding of the JM216:β-cyclodextrin or JM216:polymer mixtures may be accomplished by standard procedures, e.g. automatic mortar and pestle machines or a hybridizer (milling machine). The time needed in the grinding process may be readily determined by simple test (period analysis of the mixture by x-ray diffraction studies). A suitable grinding time with the automatic mortar and pestle machine is three hours and with the hybridizer, five minutes.

[2] = Water-solubility of JM216 at 23° C.; type: physicochemical
From the text: Although the oral dosage form of JM216 being pursued in the clinic has obvious advantages over injectable platinum complexes such as cisplatin and carboplatin, it is reported by M. J. McKeage et al in Cancer Chemother. Pharmacol. 36: 451-458 (1995) that the current oral capsule form may have certain pharmacokinetic disadvantages.

[3] = In vitro drug absorption through excised rat rectum (Franz diffusion cell); type: in vitro ADME; settings: listed as JM216 bulk drug (non-amorphous)
Protocol: The rectum was freshly excised from each rat and was opened lengthwise using scissors. The excised rectum, serous membrane side down, was mounted on a Franz diffusion cell (reservoir volume 10 ml, 7 mm i.d. O ring flange). […] Gentamicin solution (10 mg/ml) was added to the reservoir fluid (phosphate buffer, pH 7.3) in the ratio of 1:100.
The various test samples were incorporated into standard suppository bases and then subjected to the in vitro drug absorption test. […] The suppository samples were prepared by fusion method melting the base at 50° C. for fatty bases or at 75° C. for polyethylene glycol water-soluble base. The drug was incorporated into the base at a concentration of 2 mg/80 mg base. Medium chain fatty acids (or Na salts thereof) and surface active agents were also added at the appropriate level.

[4] = cited from earlier work
[5] = oral capsule, dose levels ≥200 mg/m^2

## CC(=O)[O][Pt]([NH2])([Cl])([Cl])([NH]C1CCCCC1)[O]C(C)=O [JM216, bis-acetato-ammine-dichloro-cyclohexylamine-platinum (IV)]
[1]; 1 Min.
  Dissolved JM216: 0.2 mg/mL
[1]; 5 Min.
  Dissolved JM216: 0.3 mg/mL
[1]; 15 Min.
  Dissolved JM216: 0.5 mg/mL
[1]; 30 Min.
  Dissolved JM216: 0.5 mg/mL
[1]; 60 Min.
  Dissolved JM216: 0.5 mg/mL
[2]
  water-solubility: 300 µg/mL
[3]
  absorption in the rat rectum model (in words): little absorbed in the form of a suspension in water or in fatty suppository bases; also recorded: absorbed to some extent when incorporated into the water-soluble base, polyethylene glycol (PEG)
[4]; [5]
  AUC (dose proportionality): increased less than proportionally to dose
  Cmax (dose proportionality): increased less than proportionally to dose
  interpatient pharmacokinetic variation: greater interpatient pharmacokinetic variation
  urinary platinum recovery: reduced urinary platinum recovery
[4]; oral dosing
  side effects seen with oral dosing: nausea and vomitting
